In experiment [1] the target is Recombinant human Menin protein (2-610) / MLL polypeptide binding (Homo sapiens (Human), UniProt O00255). The experiment in a line: Menin and MLL protein binding at a molecular level (fluorescence polarization method). To be noted: inhibition of Menin / MLL polypeptide binding. From the text: Example 3: Determination of the Activity of the Compounds of the Present Invention on Menin and MLL Protein Binding at a Molecular Level (Fluorescence Polarization Method)
1. Reagents, Materials and Instruments:
• Recombinant human Menin protein (2-610): ChemPartner, CP2021020801; • MLL polypeptide (6-FAM-Ahx-SG-40): GL Biochem, 865700; • Trizma® hydrochloride buffer solution (Tris): Sigma, T2194-1 L; • NaCl: Invitrogen, AM9760G; • TCEP: Sigma, 646547; • DMSO: Sigma, D4540; • 384-well plate: Corning, 4514; • Envision: PerkinElmer.
2. Preparation of Reaction Solutions
• 1) Buffer solution: 20 mL of Tris and 4 mL of NaCl were added respectively to 376 mL of ddH2O, with pH adjusted to 7.5, and TCEP was added before testing with a dilution ratio of 1:500. • 2) 5× test compounds: the test compound was subjected to gradient dilution with the buffer solution to 5-fold the reaction concentration, so that the final concentrations of the compound were 1.000, 0.333, 0.111, 0.037, 0.012, 0.004, 0.001 and 0.0005 μM, respectively. • 3) 2.5× Menin protein reaction solution: the Menin protein was diluted to 5 nM with the buffer solution. • 4) 2.5×MLL polypeptide reaction solution: the MLL polypeptide was diluted to 5 nM with the buffer solution.
1) Binding Reaction (20 μL System)
4 μL of 5× test compound was added to each reaction well of the 384-well plate, and the corresponding volume of 10% DMSO was added to the control wells. Except the control wells, 8 μL of Menin protein reaction solution was added to each well. The reaction solution was incubated at room temperature for 30 minutes, and then 8 μL of MLL polypeptide reaction solution was added to each well. The final concentrations of DMSO in the test compound wells and control wells were all 2%. The 384-well plate was sealed and incubated at room temperature for 30 minutes in the dark.
Three control groups were set up: • a blank control group only containing a buffer solution; • a negative control group only containing MLL polypeptide reaction solution; and • a positive control group containing Menin protein reaction solution and MLL polypeptide reaction solution.
The vertical polarization S value and the horizontal polarization P value (excitation wavelength was 480 nm, and emission wavelength was 535 nm) were measured with Envision.
Corrected S is the S value of the negative control group—the S value of the blank control group
Corrected P is the P value of the negative control group—the P value of the blank control group
(§1) • calculated by using software XL-Fit™ (version 5.3) supplied by ID Business Solutions (Guildford, UK), which is an additional software to Microsoft Excel.
Background: Polarisation of emitted light reports the rotation of a fluorescent probe.

The test system of experiment [2] is MV-4-11 cells (human acute myelogenous leukemia cell line carrying MLL-AF4 mutation). The experiment in a line: Cell proliferation assay, MV-4-11 (CellTiter-Glo). The experiment is classed as cell-based. The conditions noted are these: Homo sapiens, MV4-11, 72 h. How it is done: Example 4 Cell Proliferation Assay
MV-4-11 (ATCC, CRL-9591), a human acute myelogenous leukemia cell line carrying MLL-AF4 mutation. Cells were cultured in an IMDM medium containing 10% heat-inactivated fetal bovine serum (HIFBS) and supplemented with 50 μM β-mercaptoethanol.
2. Reagents, Materials and Instruments:
• IMDM culture solution: GIBCO, 12440-053; • HIFBS: GIBCO, 10100-147; • β-mercaptoethanol: Sigma, M3148; • CellTiter-Glo® 2.0 assay kit (CTG): Promega, G9243; • DMSO: Sigma, D4540; • 96-well cell culture plate: Corning, 3903; • Envision: PerkinElmer.
MV-4-11 cells were resuspended in a medium, added to a 96-well plate at a density of 3000 cells/well with a volume of 100 μL/well, and cultured in a cell incubator at 5% CO2 and 37° C. for 4 hours. The test compound subjected to gradient dilution with the medium was added to a cell culture plate, and the final concentrations of the compound were 1.100, 0.367, 0.122, 0.041, 0.014, 0.005, 0.002 and 0.001 μM, respectively. The corresponding volume of DMSO diluent was added to a blank control well, and the final concentrations of DMSO in the experimental group and control group were both 0.1%. The cell plate was placed in a cell incubator at 5% CO2 and 37° C. and cultured for 3 days.
On day 0 and day 3 of the treatment, 50 μL/well CTG reagent was added to the cell plate and shaken at room temperature in the dark for 10 min, and then the chemiluminescence value of each well was measured with Envision.
[formula] • wherein: • luminescence valuetest sample: the chemiluminescence value of a cell well treated with the test compound for 3 days. • luminescence valueday 0: the chemiluminescence value of a cell well at day 0. • luminescence valuecell well: the chemiluminescence value of a cell well not treated with the compound for 3 days.
as §1
(Cellular ATP, detected with luciferase, serves as a proxy for viable cell number.)

The mark [3] stands for this setting: MV-4-11 cells, 3 days treatment, CellTiter-Glo, read-out: GI50.

This passage reports IC50 and GI50 results from patent US20260055108A1, “TRIAZINE COMPOUNDS AND USES THEREOF” (HUTCHMED LIMITED, priority 2022, published 2026).

Read-outs that look alike come from different tables or passages of the source.

Chain of Recombinant human Menin protein (2-610) / MLL polypeptide binding (O00255 2-610): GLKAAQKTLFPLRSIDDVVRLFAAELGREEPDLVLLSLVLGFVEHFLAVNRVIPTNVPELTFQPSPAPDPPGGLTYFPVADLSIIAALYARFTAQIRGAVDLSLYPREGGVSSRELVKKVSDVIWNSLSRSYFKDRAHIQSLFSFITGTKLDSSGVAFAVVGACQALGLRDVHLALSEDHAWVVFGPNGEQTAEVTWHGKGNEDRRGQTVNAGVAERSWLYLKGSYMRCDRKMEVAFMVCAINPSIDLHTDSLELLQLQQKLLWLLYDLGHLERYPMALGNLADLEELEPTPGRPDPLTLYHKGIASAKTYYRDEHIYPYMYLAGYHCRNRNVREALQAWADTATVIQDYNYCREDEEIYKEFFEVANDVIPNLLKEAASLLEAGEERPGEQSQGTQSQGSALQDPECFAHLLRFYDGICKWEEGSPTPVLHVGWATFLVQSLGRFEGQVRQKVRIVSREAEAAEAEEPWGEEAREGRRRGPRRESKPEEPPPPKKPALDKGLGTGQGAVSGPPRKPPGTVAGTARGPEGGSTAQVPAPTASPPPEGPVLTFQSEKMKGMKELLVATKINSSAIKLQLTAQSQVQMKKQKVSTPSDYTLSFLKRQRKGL

On to `CCN(C(=O)c1cc(F)ccc1Oc1nncnc1N1CC2(CCN(CC3CCN(C(=O)N(C)c4ccccn4)CC3)CC2)C1)C(C)C` [Compound 25], for which the IC50 in experiment [1] came to 163 nM. Further, in experiment [2] (setting [3]), the concentration for 50% growth inhibition (GI50) was determined as 231 nM.
Consider `CCN(C(=O)c1cc(F)ccc1Oc1nncnc1N1CC2(CCN(CC3CCN(C(=O)NC4CC4)CC3)CC2)C1)C(C)C` [Compound 26, N-cyclopropyl-4-((2-(6-(2-(ethyl(isopropyl)carbamoyl)-4-fluorophenoxy)-1,2,4-triazin-5-yl)-2,7-diazaspiro[3.5]nonan-7-yl)methyl)piperidine-1-carboxamide], for which the IC50 in experiment [1] amounted to 0.9 nM. Moreover, in experiment [2], the GI50 was 7 nM.
Regarding `CCN(C(=O)c1cc(F)ccc1Oc1nncnc1N1CC2(CCN(CC3CCN(C(=O)NC)CC3)CC2)C1)C(C)C` [Compound 27], the IC50 in experiment [1] was 5.3 nM. For the same molecule, the GI50 in experiment [2] (setting [3]) is 13 nM.
On the same counts, the results for `CCN(C(=O)c1cc(F)ccc1Oc1nncnc1N1CC2(CCN(CC3CCN(C(=O)NC(C)C)CC3)CC2)C1)C(C)C` [Compound 29] are 2.5 nM and 15 nM.
The corresponding values for `CCN(C(=O)c1cc(F)ccc1Oc1nncnc1N1CC2(CCN(CC3CCN(C(=O)NC(C)(C)C)CC3)CC2)C1)C(C)C` [Compound 30] are 1.7 nM and 5 nM.
On the same counts, the results for `O=C(NC1CC1)N1CCC(CN2CCC3(CC2)CN(c2ncnnc2Oc2ccc(F)cc2)C3)CC1` [Compound 31] are 155 nM and 284 nM.
For `CCN(C(=O)c1cc(F)ccc1Oc1nncnc1N1CC2(CCN(CC3CCN(C(=O)NC4CCC4)CC3)CC2)C1)C(C)C` [Compound 32], in experiment [1], the 50% inhibitory concentration (IC50) came to 1 nM. Besides, the 50% growth inhibitory concentration (GI50) in experiment [2] (setting [3]) turned out to be 4 nM.
On to `CCN(C(=O)c1cc(F)ccc1Oc1nncnc1N1CC2(CCN(CC3CCN(C(=O)NC4COC4)CC3)CC2)C1)C(C)C` [Compound 33], for which the IC50 in experiment [1] stood at 2.9 nM. The GI50 in experiment [2] (setting [3]) came to 18 nM.
The corresponding values for `CCN(C(=O)c1cc(F)ccc1Oc1nncnc1N1CC2(CCN(CC3CCN(C(=O)NCc4ccccc4)CC3)CC2)C1)C(C)C` [Compound 34] are 8.1 nM and 24 nM.
On the same counts, the results for `CCN(C(=O)c1cc(F)ccc1Oc1nncnc1N1CC2(CCN(CC3CCN(C(=O)NCCOC)CC3)CC2)C1)C(C)C` [Compound 35] are 10.7 nM and 35 nM.
On the same counts, the results for `CCN(C(=O)c1cc(F)ccc1Oc1nncnc1N1CC2(CCN(CC3CCN(C(=O)Nc4ccccc4F)CC3)CC2)C1)C(C)C` [Compound 36, 4-((2-(6-(2-(ethyl(isopropyl)carbamoyl)-4-fluorophenoxy)-1,2,4-triazin-5-yl)-2,7-diazaspiro[3.5]nonan-7-yl)methyl)-N-(2-fluorophenyl)piperidine-1-carboxamide] are 4.6 nM and 16 nM.
With `CCN(C(=O)c1cc(F)ccc1Oc1nncnc1N1CC2(CCN(CC3CCN(C(=O)Nc4ccccn4)CC3)CC2)C1)C(C)C` [Compound 37], the concentration for half-maximal inhibition (IC50) in experiment [1] worked out at 13.7 nM. Also, the GI50 in experiment [2] (setting [3]) was 23 nM.
Consider `CCN(C(=O)c1cc(F)ccc1Oc1nncnc1N1CC2(CCN(CC3CCN(c4ccc(C(F)(F)F)nn4)CC3)CC2)C1)C(C)C` [Compound 38, N-ethyl-5-fluoro-N-isopropyl-2-((5-(7-((1-(6-(trifluoromethyl)pyridazin-3-yl)piperidin-4-yl)methyl)-2,7-diazaspiro[3.5]nonan-2-yl)-1,2,4-triazin-6-yl)oxy)benzamide], for which, in experiment [1], the IC50 is 1.7 nM. Moreover, the GI50 in experiment [2] (setting [3]) came out at 2 nM.
On the same counts, the results for `CCN(C(=O)c1cc(F)ccc1Oc1nncnc1N1CC2(CCN(CC3CCN(C[C@@H](O)CC#N)CC3)CC2)C1)C(C)C` [Compound 39] are 68.3 nM and 97 nM.
On the same counts, the results for `CCN(C(=O)c1cc(F)ccc1Oc1nncnc1N1CC2(CCN(CC3CCN(c4cnccn4)CC3)CC2)C1)C(C)C` [Compound 40] are 11.4 nM and 23 nM.
Regarding `CCN(C(=O)c1cc(F)ccc1Oc1nncnc1N1CC2(CCN(CC3CCN(c4cnc(Cl)nn4)CC3)CC2)C1)C(C)C` [Compound 41], the IC50 in experiment [1] was 3.1 nM. For the same molecule, the concentration for 50% growth inhibition (GI50) in experiment [2] (setting [3]) is 8 nM.
Turning to `CCN(C(=O)c1cc(F)ccc1Oc1nncnc1N1CC2(CCN(CC3CCN(c4ccc(Br)c(=O)n4C)CC3)CC2)C1)C(C)C` [Compound 42], in experiment [1], the half-inhibitory concentration (IC50) stood at 89.9 nM. Also, the GI50 in experiment [2] (setting [3]) was determined as 37 nM.
For the molecule `CCN(C(=O)c1cc(F)ccc1Oc1nncnc1N1CC2(CCN(CC3CCN(c4ccc5nccn5n4)CC3)CC2)C1)C(C)C` [Compound 43], the IC50 in experiment [1] stood at 6.4 nM. Further, the GI50 in experiment [2] (setting [3]) was found to be 13 nM.
Consider `CCN(C(=O)c1cc(F)ccc1Oc1nncnc1N1CC2(CCN(CC3CCN(c4ccc(C5CC5)nn4)CC3)CC2)C1)C(C)C` [Compound 44], for which the 50% inhibitory concentration (IC50) in experiment [1] stood at 4.3 nM. For the same molecule, in experiment [2] (setting [3]), the GI50 is 14 nM.
On the same counts, the results for `CCN(C(=O)c1cc(F)ccc1Oc1nncnc1N1CC2(CCN(CC3CCN(c4cc(C(F)(F)F)cnn4)CC3)CC2)C1)C(C)C` [Compound 45] are 3.9 nM and 7 nM.
For the molecule `CCN(C(=O)c1cc(F)ccc1Oc1nncnc1N1CC2(CCN(CC3CCN(c4ccc(Cl)nn4)CC3)CC2)C1)C(C)C` [Compound 46], the IC50 in experiment [1] was found to be 1.1 nM. For the same molecule, the GI50 in experiment [2] (setting [3]) was found to be 2 nM.
On the same counts, the results for `CCN(C(=O)c1cc(F)ccc1Oc1nncnc1N1CC2(CCN(CC3CCN(c4ccc(C#N)nn4)CC3)CC2)C1)C(C)C` [Compound 47] are 2.6 nM and 3 nM.
For the molecule `CCN(C(=O)c1cc(F)ccc1Oc1nncnc1N1CC2(CCN(CC3CCN(c4cc(C#N)cnn4)CC3)CC2)C1)C(C)C` [Compound 48], the half-inhibitory concentration (IC50) in experiment [1] amounted to 4.7 nM. Further, in experiment [2] (setting [3]), the GI50 was 15 nM.
`CCN(C(=O)c1cc(F)ccc1Oc1nncnc1N1CC2(CCN(CC3CCN(c4cnc(C#N)cn4)CC3)CC2)C1)C(C)C` [Compound 49]: in experiment [1], the concentration for half-maximal inhibition (IC50) came to 18.5 nM. Also, the GI50 in experiment [2] (setting [3]) worked out at 24 nM.
`CCN(C(=O)c1cc(F)ccc1Oc1nncnc1N1CC2(CCN(CC3CCN(c4ccc(C#N)cn4)CC3)CC2)C1)C(C)C` [Compound 50]: in experiment [1], the half-inhibitory concentration (IC50) was 5.4 nM. In experiment [2] (setting [3]), the concentration for 50% growth inhibition (GI50) is 7 nM.
As to `CCN(C(=O)c1cc(F)ccc1Oc1nncnc1N1CC2(CCN(CC3CCN(c4ccc(C#N)cc4)CC3)CC2)C1)C(C)C` [Compound 51], the half-inhibitory concentration (IC50) in experiment [1] amounted to 6.5 nM. The GI50 in experiment [2] (setting [3]) came out at 9 nM.
On to `CCN(C(=O)c1cc(F)ccc1Oc1nncnc1N1CC2(CCN(CC3CCN(c4cc(C(N)=O)ccn4)CC3)CC2)C1)C(C)C` [Compound 52], for which the IC50 in experiment [1] was 0.9 nM. For the same molecule, in experiment [2] (setting [3]), the GI50 was determined as 3 nM.
In the case of `CCN(C(=O)c1cc(F)ccc1Oc1nncnc1N1CC2(CCN(CC3(NCCOC)CC3)CC2)C1)C(C)C` [Compound 53], the IC50 in experiment [1] stood at 99 nM. Moreover, the GI50 in experiment [2] (setting [3]) came out at 87 nM.
As for `CCN(C(=O)c1cc(F)ccc1Oc1nncnc1N1CC2(CCN(CC3CCN(c4ncccc4C(N)=O)CC3)CC2)C1)C(C)C` [Compound 54], the IC50 in experiment [1] turned out to be 15.8 nM. In experiment [2] (setting [3]), the GI50 is 21 nM.

As usually defined, the IC50 is the concentration that gives 50% inhibition. Usually GI50 stands for the concentration giving 50% growth inhibition.
